In patent US20030180291A1, “Method of inactivating viruses” (priority 1998, published 2003):
Several values for one entry are separate records, joined by “and”; a condition that tells them apart may be missing. Equal values may be shown once.

What was measured:
[1] = system: Vesicular Stomatitis (VSV, strain Indiana)
[2] = system: PseudoRabies virus (PSR, strain Bartha K61)
[3] = system: Humane Immunodeficiency Virus Type 1 (HIV-1, strain HTLV-IIIb)
[4] = system: Vesicular Stomatitis virus (VSV); format: cell-based
humane erythrocytes = format: cell-based, human

Compound	effective [DMMB] [1]	effective [DMMB] [2] [µM]	effective [DMMB] [3] [µM]	effect of light exposure on virus inactivation in absence of sensitizer [4]	haemolysis after the erythrocytes had been stored for 12 days at 4° C. (humane erythrocytes)	effect of dipyridamol on the effective concentration of sensitizer [1]	effect of dipyridamol on the effective concentration of sensitizer [2]	effect of dipyridamol on the effective concentration of sensitizer [3]
Cc1cc(=[N+](C)C)cc2sc3cc(N(C)C)cc(C)c3nc1-2.[Cl-] [DMMB, dimethyl-methylene blue]	4 µM and 5 µM	4	8	–	–	–	–	–
OCCN(CCO)c1nc(N2CCCCC2)c2nc(N(CCO)CCO)nc(N3CCCCC3)c2n1 [dipyridamol]	–	–	–	no effect at all	very strong reduction	did not, or only barely appear to affect	did not, or only barely appear to affect	did not, or only barely appear to affect
Cc1ncc(COP(=O)(O)O)c(C=O)c1O [pyridoxal phosphate]	–	–	–	no effect at all	–	–	–	–
